Data taken from publication PMC11589101, “Profiling the endocrine-disrupting properties of triazines, triazoles, and short-chain PFAS” (Toxicological Sciences, 2024).

What was measured:
[1] = molecular target: T1, human transthyretin (TTR) (Homo sapiens, UniProt P02766); test: FITC-T4 TTR-binding assay, initial (original) method; settings: for IC10 competing with FITC-T4 for binding to TTR / IC50: initial method, 110 nM FITC-T4, 30 nM TTR; for IC50: read-out: IC50 competing with FITC-T4 for binding to TTR
Procedure: (§1) All incubations were performed at room temperature.
(§2) Fluorescence enhancement was determined for each well by subtracting its relative fluorescence units (RFU) before TTR addition from its RFUs after TTR addition. The resulting values were normalized to percentages of the vehicle control. A concentration–response curve was fitted through the data using the same model as in the reporter gene assays.
After 15 min of incubation, fluorescence was measured and fluorescence enhancement was calculated by subtracting RFU without TTR from RFU with TTR. Further data analysis was similar to the screening assays.

[2] = molecular target: T1, human transthyretin (TTR); test: FITC-T4 TTR-binding assay, screening method; settings: screening method; read-out: IC50 TTR-binding assay, Screening Method
Procedure: as §1
In the screening tests, 48 μl of Tris-HCl buffer (pH 8.0) was added to each well of black low-binding 96-well plates. Two microliters of each test compound dissolved in their respective solvent was added to each well and the plate was shaken at 600 rpm for 5 min. […] Fluorescence was measured again to check for possible autofluorescence or quenching by the test compound.
as §2

[3] = system: steroidogenesis in H295R cells; type: cell-based, human; settings: 48 h
Procedure: All experiments were performed using cells in passages 5 to 10. First, the highest noncytotoxic concentration (<10% decrease in viability) was determined for each compound with MTT assays. Next, the levels of 13 steroid hormones were determined in the medium after exposure of the H295R cells to the highest noncytotoxic concentration using LC-MS/MS. These concentrations were tested in triplicate (n = 3) in 3 independent experiments (N = 3), and all 9 samples were measured in LC-MS/MS. […] These dilution series were tested in 3 independent experiments (N = 3), with triplicate exposures in each of these experiments (n = 3). Supernatants of the triplicate exposures per experiment were pooled after the 48 h of exposure and the 3 pooled samples were measured with LC-MS/MS. This was done to keep the number of LC-MS/MS measurements manageable.
The exposure medium was prepared by diluting stock solutions 1,000× in the cell culture medium to obtain a final concentration of 0.1% of the solvent. Exposure was started by replacing cell culture medium with the exposure medium. […] On a separate quality control plate, cells were exposed to 10 μM forskolin (Sigma-Aldrich) and 1 μM prochloraz (Sigma-Aldrich) to serve as positive control for increased and decreased steroid hormone secretion, respectively. Exposure was started by replacing the culture medium in the cell culture plates with the exposure medium.
After 48 h of exposure, the supernatant medium from each well was transferred to the wells of a clean 48-well plate, and that plate was stored at −80 °C for later steroid measurement. MTT assays were performed by adding 500 μl of 0.5 mg/ml MTT (3-(4,5-dimethylthiazol-2-yl)-2,5-diphenyltetrazolium bromide; Sigma-Aldrich) solution in medium to each well of the 24-well cell culture plate and incubating for 1 h at 37 °C with 5% CO2. After incubation, the MTT solution was discarded and 500 μl of DMSO was added to each well to lyse the cells and dissolve the formazan crystals. Plates were shaken at 700 rpm for 10 min and absorbance was measured at 560 nm wavelength.
Hormones were concentrated from supernatants by solid phase extraction using Bond Elut Plexa cartridges, 30 mg sorbent, 1.8 ml (Agilent Technologies, Santa Clara, CA, United States). The cartridges were conditioned with 1 ml of 0.5% formic acid in methanol, and subsequent addition of 1 ml of 0.5% formic acid in water. A mix of 100 μl of H295R medium sample in 1 ml of 2% formic acid in water and 50 μl of isotopically labeled internal standards mix (Table S1) was loaded on the cartridges. These were then washed with 1 ml of water followed by 1 ml of water–methanol mixture (70:30, v/v). Cartridges were dried by vacuum and the hormones were eluted with 700 μl of methanol into 96-well-deep well polypropylene plates. Eluates were evaporated to dryness during approximately 2 h in a refrigerated CentriVap vacuum concentrator and reconstituted in 150 μl of water–methanol mixture (1:1, v/v). Additionally, a serial 12-point dilution series of a mix of native steroid hormones was prepared to fit a calibration curve in order to quantify steroid concentrations.
The steroid hormones were separated prior to MS measurements on a Kinetex C18 LC Column (2.6 μm, 100 × 2.1 mm; Phenomenex, CA, United States) coupled to an Exion LC system (SCIEX, Framingham, MA, United States). The mobile phase consisted of 0.2 mM NH4F in water and pure methanol and was delivered at a flow rate of 0.6 ml/min in a gradient elution mode. The injection volume was 10 μl.
The LC-MS/MS raw data were processed using AB Sciex OS Analyst version 1.6.2 (SCIEX, Framingham, MA, United States) to calculate fold changes by dividing the measured hormone concentrations by the hormone concentrations in the vehicle controls. The fold changes were used to fit a concentration–response curve in GraphPad Prism using the same model as in the reporter gene assays, and the ECIR1.5 was estimated for each compound.

Row | Compound | IC10 competing with FITC-T4 for binding to TTR [1] [nM] | % FITCT4 bound to TTR ([1]; 0.1 uM) [%] | % FITCT4 bound to TTR ([1]; 0.3 uM) [%] | % FITCT4 bound to TTR ([1]; 1 uM) [%] | % FITCT4 bound to TTR ([1]; 3 uM) [%] | % FITCT4 bound to TTR ([1]; 10 uM) [%] | % FITCT4 bound to TTR ([1]; 30 uM) [%] | % FITCT4 bound to TTR ([1]; 100 uM) [%] | IC50 [1] [nM] | IC50 [2] [nM] | increased levels of progesterone and 17α-OH-progesterone compared with vehicle-treated controls ([3]; H295R) | effect on steroid hormone levels compared with vehicle-treated controls ([3]; highest noncytotoxic exposure concentration)
1 | NC(Cc1cc(I)c(Oc2cc(I)c(O)c(I)c2)c(I)c1)C(=O)O (stereo not drawn) [T4, thyroxine, reference compound] | 2.4 | – | – | – | – | – | – | – | – | – | – | –
2 | O=C(O)C(F)(F)C(F)(F)C(F)(F)C(F)(F)C(F)(F)C(F)(F)C(F)(F)F [PFOA, Perfluorooactanoic acid] | 53 | 82.1607 | 45.526 | 17.6477 | 6.188 | 2.364 | 0.3274 | 0.2557 | 280 | 280 | – | –
3 | O=S(=O)(O)C(F)(F)C(F)(F)C(F)(F)C(F)(F)C(F)(F)C(F)(F)C(F)(F)C(F)(F)F [PFOS, Perfluorooctane sulfonic acid] | 47 | 75.2122 | 36.6572 | 10.1163 | 2.093 | 0.8236 | 1.548 | -1.121 | 210 | 190 | – | –
4 | CC(C)(C)[C@@H](O)[C@@H](Cc1ccc(Cl)cc1)n1cncn1 (racemic) [Paclobutrazol] | – | – | – | – | – | – | – | – | – | – | up to 3.5 fold | increased levels of progesterone and decreased levels of androgens, estrogens, and corticosteroids
5 | Cc1cccc2[nH]nnc12 [4-methylbenzotriazole, 4-Methylbenzotriazole] | 1300 | 96.4305 | 93.5915 | 89.9761 | 82.6096 | 67.1205 | 47.648 | 21.2593 | 23300 | 26300 | – | –
